SMILES strings stand for the structures.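 Cells were grown in 96-well plates and exposed to each compound for 48 hours at five concentrations; endpoints were interpolated linearly between bracketing concentrations, or set to the highest concentration if not reached. At the TGI there is no net growth.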 Where only a bound is given, the exact number is not on record here.

Test systems include SNB-19 CNS; K-562 leukemia; HOP-92 NSCLC; SK-MEL-28 melanoma; ACHN renal; OVCAR-5 ovarian; SF-268 CNS; RXF 393 renal; 786-0 renal; NCI-H23 lung.
Test in all cases: NCI tumour cell line growth inhibition, 48 h

Regarding `CCOC/N=C(/N)NC#N`, the TGI in the test with SNB-19 CNS, in the test with K-562 leukemia, in the test with HOP-92 NSCLC, in the test with SK-MEL-28 melanoma, in the test with ACHN renal and with OVCAR-5 ovarian was greater than 100 µM in each case. For the same compound, the TGI in the test on SF-268 CNS was greater than 100 µM; with RXF 393 renal, greater than 100 µM; in the test with 786-0 renal, 56.2 µM; in the test with NCI-H23 lung, greater than 100 µM.
With `Cc1ccc(S(=O)(=O)N/C(=C\C=C\c2ccccc2)C(=O)C(C)(C)C)cc1`, the TGI in the test with SNB-19 CNS was greater than 100 µM; in the test on K-562 leukemia, greater than 100 µM; with HOP-92 NSCLC it was 71.9 µM; in the test on SK-MEL-28 melanoma, greater than 100 µM; in the test with ACHN renal, greater than 100 µM; with OVCAR-5 ovarian it was greater than 100 µM. Further, the TGI was greater than 100 µM in the test on SF-268 CNS, greater than 100 µM in the test on RXF 393 renal, 73.6 µM with 786-0 renal and greater than 100 µM in the test with NCI-H23 lung.
Regarding `C=CCC(C)C12CCNC(Cc3ccc(O)cc31)C2C` (stereo not given), the TGI with SNB-19 CNS, with K-562 leukemia, with HOP-92 NSCLC, in the test on SK-MEL-28 melanoma, with ACHN renal and with OVCAR-5 ovarian was greater than 100 µM in each case. Moreover, the TGI with SF-268 CNS, with RXF 393 renal, with 786-0 renal and in the test on NCI-H23 lung was greater than 100 µM in each case.
Consider `CCNC(=O)Nc1cccc(C)n1`, for which the TGI with SNB-19 CNS, in the test with K-562 leukemia, in the test on HOP-92 NSCLC, in the test on SK-MEL-28 melanoma, in the test on ACHN renal and in the test on OVCAR-5 ovarian was greater than 100 µM in each case. Further, the TGI in the test with SF-268 CNS, in the test with RXF 393 renal, with 786-0 renal and in the test on NCI-H23 lung was greater than 100 µM throughout.
In the case of `Cc1ccc(F)cc1NC(=O)O/N=C(\Cl)C(C)C`, the TGI in the test on SNB-19 CNS is greater than 56.8 µM; in the test with K-562 leukemia, 5.72 µM; in the test with HOP-92 NSCLC, 7.07 µM; in the test with SK-MEL-28 melanoma, 38 µM; in the test with ACHN renal it was 4.41 µM; in the test with OVCAR-5 ovarian, 31.7 µM. Moreover, the TGI in the test with SF-268 CNS is 62.8 µM; in the test on RXF 393 renal it was 9.51 µM; with 786-0 renal, 15.7 µM; with NCI-H23 lung, greater than 56.9 µM.
Regarding `CCOC(=O)/C(=C\NCC(O)c1ccccc1)c1nc2ccccc2[nH]1` (stereo not given), the TGI is greater than 100 µM in the test on SNB-19 CNS; 59.6 µM with K-562 leukemia; 65.5 µM in the test with HOP-92 NSCLC; 39.6 µM in the test on SK-MEL-28 melanoma; 28.8 µM in the test with ACHN renal; 83.8 µM in the test with OVCAR-5 ovarian. The TGI is 40.5 µM with SF-268 CNS, greater than 100 µM in the test with RXF 393 renal, greater than 100 µM in the test on 786-0 renal and 59.6 µM in the test with NCI-H23 lung.
As for `CC(C)CCCC(C)[C@H]1CCC2[C@@H]3CCC4Cc5nc6c(nc5C[C@]4(C)C3CC[C@@]21C)CC1CC[C@@H]2C(C[C@@H](O)[C@@]3(C)C2C[C@@H]2OC4(CCC(C)CO4)C(C)[C@@H]23)[C@@]1(C)C6` (stereo not given in full), the TGI in the test with SNB-19 CNS, in the test with K-562 leukemia, in the test on HOP-92 NSCLC, with SK-MEL-28 melanoma, in the test on ACHN renal and in the test on OVCAR-5 ovarian was greater than 100 µM each time. The TGI in the test with SF-268 CNS, in the test on RXF 393 renal, with 786-0 renal and with NCI-H23 lung was greater than 100 µM each time.
With `C=CC(=O)N1C/C(=C\c2ccc(N(C)C)cc2)C(=O)/C(=C/c2ccc(N(C)C)cc2)C1`, the TGI in the test on SNB-19 CNS, in the test on K-562 leukemia, with HOP-92 NSCLC, in the test with SK-MEL-28 melanoma, in the test on ACHN renal and with OVCAR-5 ovarian was greater than 100 µM in each case. For the same compound, the TGI in the test on SF-268 CNS, in the test with RXF 393 renal, in the test with 786-0 renal and in the test on NCI-H23 lung was greater than 100 µM throughout.
On to `CC(C)(CO)CNc1cc(=O)[nH]c(N)n1`, for which the TGI in the test on SNB-19 CNS, with K-562 leukemia, with HOP-92 NSCLC, in the test with SK-MEL-28 melanoma, in the test with ACHN renal and with OVCAR-5 ovarian was greater than 100 µM in each case. Also, the TGI in the test on SF-268 CNS, in the test with RXF 393 renal, in the test with 786-0 renal and in the test on NCI-H23 lung was greater than 100 µM each time.
For the compound `CCCCOC(=O)C(=O)C(CCC(=O)c1ccc(C)cc1)C(=O)C=C(C)C` (stereo not given), the TGI in the test on SNB-19 CNS, with K-562 leukemia, in the test with HOP-92 NSCLC, in the test with SK-MEL-28 melanoma, in the test on ACHN renal and in the test on OVCAR-5 ovarian was greater than 100 µM in each case. The TGI in the test with SF-268 CNS, with RXF 393 renal, with 786-0 renal and in the test on NCI-H23 lung was greater than 100 µM in each case.
Regarding `OC(C1CCC=NN1C(O)(C(F)(F)F)C(F)(F)F)(C(F)(F)F)C(F)(F)F` (stereo not given), the TGI in the test on SNB-19 CNS, with K-562 leukemia, with HOP-92 NSCLC, in the test with SK-MEL-28 melanoma, with ACHN renal and in the test on OVCAR-5 ovarian was greater than 10 µM in each case. For the same compound, the TGI in the test with SF-268 CNS, with RXF 393 renal, with 786-0 renal and with NCI-H23 lung was greater than 10 µM each time.

(Values after PubChem BioAssay (NCI).)
